In patent publication EP4664463A1, “COMPUTER-IMPLEMENTED METHOD FOR OLFACTORY PROPERTY PREDICTION” (Givaudan SA, priority 2024, dated 2025):
pEC50: −log10 of the molar value. Read-outs that look alike come from different tables or passages of the source. Blank lines part the entries; values can stand above or below the compound they belong to.

Tests used:
OR14J1 = target: T1, OR14J1 (Homo sapiens, UniProt Q9UGF5); assay: Activation of modified OR14J1 (SEQ ID NO: 221), library hit and dose-response; type: cell-based; settings: SEQ ID 221
T1 construct: expressed in transfected cells; host or cells: HEK293T stably expressing human RTP1S(V227I) and RTP2(L220R) (general method)
Description: Parallel transfection experiments were conducted with all these plasmids (n = 408) and cells expressing the different OR were stimulated with one given ligand at a time, tested at the maximal, clearly non-cytotoxic concentration. In total 26 different ligands were tested on the full library of class II receptors.
Table 16. Ligands tested on the full library of OR and cognate receptors identified for these ligands

OR52E8 [1] = assay: cell-based; type: cell-based, human
Source text: (§1) To create an expression plasmid, an OR coding sequence fused at the end of TM7 to the desired C-terminus sequence was synthesized by a DNA synthesis service provider (BioCat GmbH, Germany) and inserted into pcDNA3.1(+) (Invitrogen, MA, USA) downstream of the CMV promoter sequence (SEQ ID NO: 82) using BamHI and Notl restriction sites. All the synthetic OR nucleotide sequences described below in Examples 1-15 further contained at their N-terminus a nucleotide sequence encoding a signal peptide (mmLucy-FLAG-rho, SeQ ID NOs: 80, 81) and at the C-terminus the bgh terminator sequence (SEQ ID NO: 83). All the OR expression plasmids also contain a Kozak sequence (GCCACC) between the BamHI restriction site and the start codon of the signal peptide. These plasmids thus contain a constitutively expressed OR gene.

OR52E8 [2] = target: T2, OR52E8 (Homo sapiens, UniProt Q6IFG1); assay: cell-based; type: cell-based; settings: read-out: Potency EC50
T2 construct: expressed in transfected cells; host or cells: HEK293T stably expressing human RTP1S(V227I) and RTP2(L220R)
Source text: as §1

OR10J5 = target: T3, OR10J5 (Homo sapiens, UniProt Q8NHC4); assay: OR10J5 (SEQ ID NO: 86) dose-response of isomers, EC20% relative to positive control; type: cell-based; settings: 20 % of positive control (100µM Mahonial); OR10J5 with SEQ ID NO: 86
T3 construct: expressed in transfected cells; host or cells: HEK293T cells stably expressing human RTP1S (V227I) and RTP2 (L220R)
T3 sequence (Q8NHC4 with tags, fused parts or gaps): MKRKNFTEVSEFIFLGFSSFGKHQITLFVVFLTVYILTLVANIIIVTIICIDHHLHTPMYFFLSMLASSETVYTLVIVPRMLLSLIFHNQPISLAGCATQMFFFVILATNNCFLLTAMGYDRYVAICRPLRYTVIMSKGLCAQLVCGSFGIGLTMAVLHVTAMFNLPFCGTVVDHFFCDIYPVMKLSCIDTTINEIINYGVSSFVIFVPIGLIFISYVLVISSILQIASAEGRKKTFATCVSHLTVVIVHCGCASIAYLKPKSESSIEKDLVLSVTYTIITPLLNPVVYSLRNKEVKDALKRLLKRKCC
Source text: Once a strong ligand is known for a given OR and the concentration of that ligand for maximal OR activation, this ligand (tested at its maximal inducing concentration) can be introduced as a positive control into the experiment, and fold-luciferase can be reported as % activation of the positive control according to the following formula: % activation = (Fold luciferase activation test compound−1)/(Fold luciferase activation positive control−1) × 100 [formula]
Activation of OR10J5 with the C-terminal domain of SEQ ID NO: 86 by (S,E)-10-hydroxy-4,8-dimethyldec-4-enal or (R,E)-10-hydroxy-4,8-dimethyldec-4-enal was measured in a dose-response analysis.
Potency of the two tested OR10J5 ligands is expressed as the EC20% value, which is the concentration that leads to a 20 % increase of the luciferase activity relative to the positive control (100µM, Mahonial; (4E)-9-hydroxy-5,9-dimethyl-4-Decenal). […] Because of the difference in EC20%, a much lower concentration of the (S,E)-isomer is needed to activate the receptor compared to the concentration needed of the (R,E)-isomer. […] This example further illustrates the usefulness of the improved assay to determine the most odor-active isomers.

OR4S2 [3] = target: T4, OR4S2 (Homo sapiens, UniProt Q8NH73); assay: cell-based; type: cell-based
T4 construct: expressed in transfected cells; host or cells: HEK293T stably expressing human RTP1S(V227I) and RTP2(L220R)
Source text: as §1

OR4S2 [4] = target: T5, OR4S2 (Homo sapiens, UniProt Q8NH73, A290K); assay: cell-based; type: cell-based
T5 construct: expressed in transfected cells; host or cells: HEK293T stably expressing human RTP1S(V227I) and RTP2(L220R)
Source text: as §1

OR4S2 [5] = assay: cell-based; type: cell-based, human
Source text: as §1

OR5A1 [6] = target: T6, OR5A1 (Homo sapiens, UniProt Q8NGJ0, I300V); assay: Luciferase dose-response, wild-type vs changed C-terminus (SEQ ID NO: 86); type: cell-based
T6 construct: expressed in transfected cells; host or cells: HEK293T cells stably expressing human RTP1S (V227I) and RTP2 (L220R)

OR5A1 [7] = target: T7, OR5A1 (Homo sapiens, UniProt Q8NGJ0); assay: as above; type: cell-based
T7 construct: expressed in transfected cells; host or cells: HEK293T cells stably expressing human RTP1S (V227I) and RTP2 (L220R)

OR5A1 [8] = assay: as above; type: cell-based, human

T6 sequence (Q8NGJ0 with tags, fused parts or gaps I300V): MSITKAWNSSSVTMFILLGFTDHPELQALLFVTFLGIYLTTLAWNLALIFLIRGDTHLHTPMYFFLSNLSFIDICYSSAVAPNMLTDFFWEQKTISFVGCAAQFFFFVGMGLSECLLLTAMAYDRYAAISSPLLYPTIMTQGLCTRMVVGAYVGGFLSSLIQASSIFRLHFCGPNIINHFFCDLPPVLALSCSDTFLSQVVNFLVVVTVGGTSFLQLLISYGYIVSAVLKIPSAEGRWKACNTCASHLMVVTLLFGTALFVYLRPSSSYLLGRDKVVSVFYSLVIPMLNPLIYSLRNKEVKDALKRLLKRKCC
T5 sequence (Q8NH73 with tags, fused parts or gaps A290K): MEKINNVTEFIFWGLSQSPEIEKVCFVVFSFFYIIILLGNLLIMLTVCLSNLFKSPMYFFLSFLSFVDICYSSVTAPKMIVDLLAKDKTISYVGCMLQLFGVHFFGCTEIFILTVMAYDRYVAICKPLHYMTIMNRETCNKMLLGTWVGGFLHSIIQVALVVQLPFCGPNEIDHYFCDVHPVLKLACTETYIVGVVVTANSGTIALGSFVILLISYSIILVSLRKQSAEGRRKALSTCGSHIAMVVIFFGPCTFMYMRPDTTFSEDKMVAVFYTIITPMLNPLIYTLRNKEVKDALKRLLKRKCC
T1 sequence (Q9UGF5 with tags, fused parts or gaps): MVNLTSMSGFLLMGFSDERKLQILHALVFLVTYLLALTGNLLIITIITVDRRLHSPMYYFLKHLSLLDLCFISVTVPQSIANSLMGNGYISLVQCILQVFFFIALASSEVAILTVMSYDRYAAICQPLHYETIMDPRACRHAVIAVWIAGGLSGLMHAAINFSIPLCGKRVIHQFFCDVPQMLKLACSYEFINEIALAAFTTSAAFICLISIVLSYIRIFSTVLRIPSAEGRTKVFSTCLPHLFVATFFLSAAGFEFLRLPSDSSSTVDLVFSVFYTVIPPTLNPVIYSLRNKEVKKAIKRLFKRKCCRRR

Compound: CC(C)(O)[Si](C1CC1)(C1CC1)C1CC1 [2-(tricyclopropylsilyl)propan-2-ol]
activation of OR14J1 (OR14J1): activate OR14J1

Compound: c1ccc2scnc2c1 [Benzothiazole]
Detection threshold; concentration for 2-fold induction (OR4S2 [3]): 29.4 µM
pEC50 (OR4S2 [3]; wild-type, read-out: Potency EC50): 3.86
Detection threshold; concentration for 2-fold induction (OR4S2 [4]): 12.5 µM
pEC50 (OR4S2 [4]; changed C-term SEQ ID NO: 86, read-out: Potency EC50): 3.98
Comments on efficacy (OR4S2 [5]): 2-fold lower maximal induction for wild-type
Fold-improvement potency (OR4S2 [5]): 1.3
Fold-improvement threshold (OR4S2 [5]): 2.4

Compound: CC(=O)/C=C/C1=C(C)CCCC1(C)C [Beta-ionone]
pEC50 (OR5A1 [6]): 5.51
Detection threshold; concentration for 2-fold induction (OR5A1 [6]; changed C-term. SEQ ID NO: 86): 3.2 µM
pEC50 (OR5A1 [7]): 5.26
Detection threshold; concentration for 2-fold induction (OR5A1 [7]; wild-type): 19.1 µM
Comments on efficacy (OR5A1 [8]): 4-fold lower maximal induction for wild-type
Fold-improvement potency (OR5A1 [8]): 1.8
Fold-improvement threshold (OR5A1 [8]): 5.9

More lines, main results first:

Comments on efficacy (OR52E8 [1]): No induction wild-type
pEC50 (OR52E8 [2]; changed C-term SEQ ID NO: 86): 4.16
pEC50 (OR52E8 [2]; wild-type): < 3.50
Compound: CCCC(C)(O)CC(=O)O (stereo not shown) [3-Methyl-3-Hydroxy-Hexanoic acid]
Fold-improvement potency (OR52E8 [1]): >>5
Fold-improvement threshold (OR52E8 [1]): >>5

EC20% (OR10J5): 24.4 µM
Compound: C/C(=C\CC[C@@H](C)CCO)CCC=O [(R,E)-10-hydroxy-4,8-dimethyldec-4-enal]

EC20% (OR10J5): 10.1 µM
Compound: C/C(=C\CC[C@H](C)CCO)CCC=O [(S,E)-10-hydroxy-4,8-dimethyldec-4-enal]
